According to patent publication US8501794B2, “Compounds as cannabinoid receptor ligands” (priority 2007, dated 2013):

Columns and labels:
human CB2 receptors = target: T1, human CB2 receptors (Homo sapiens, UniProt P34972); test: human CB2 radioligand binding assay ([3H]CP-55,940 competition)
T1 construct: expressed in transfected cells; host or cells: HEK293

rat CB2 [1] = target: T2, rat CB2 (Rattus norvegicus, UniProt Q9QZN9); test: rat CB2 cyclase functional assay (HitHunter cAMP, HEK cells); type: cell-based; design: expressed in transfected cells; host or cells: HEK; details: forskolin 18 μM
T2 sequence (Q9QZN9 1-360): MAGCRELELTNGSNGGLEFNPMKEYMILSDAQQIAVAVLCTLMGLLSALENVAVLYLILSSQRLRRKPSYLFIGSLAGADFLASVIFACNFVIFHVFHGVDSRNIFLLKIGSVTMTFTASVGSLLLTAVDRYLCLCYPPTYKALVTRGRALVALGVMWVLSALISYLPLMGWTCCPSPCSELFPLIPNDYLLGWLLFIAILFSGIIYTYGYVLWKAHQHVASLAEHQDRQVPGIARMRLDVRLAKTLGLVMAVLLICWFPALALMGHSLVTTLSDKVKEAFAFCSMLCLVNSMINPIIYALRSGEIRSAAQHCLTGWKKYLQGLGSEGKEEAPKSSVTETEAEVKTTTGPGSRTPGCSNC

rat CB2 [2] = target: T2, rat CB2; test: rat CB2 radioligand binding assay ([3H]CP-55,940 competition); design: expressed in transfected cells; host or cells: HEK293

T1 sequence (P34972 whole entry): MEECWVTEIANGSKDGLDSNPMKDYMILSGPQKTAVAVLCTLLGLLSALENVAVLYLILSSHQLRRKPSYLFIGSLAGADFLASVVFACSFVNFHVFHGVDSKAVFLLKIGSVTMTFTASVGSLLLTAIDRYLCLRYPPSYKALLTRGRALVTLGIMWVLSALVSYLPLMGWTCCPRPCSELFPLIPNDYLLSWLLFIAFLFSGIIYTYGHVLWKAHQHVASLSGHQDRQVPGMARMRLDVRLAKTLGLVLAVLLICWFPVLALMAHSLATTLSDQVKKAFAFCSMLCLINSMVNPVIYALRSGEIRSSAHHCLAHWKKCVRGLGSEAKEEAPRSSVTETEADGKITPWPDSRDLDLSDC

SMILES | Ki (human CB2 receptors) | EC50 (rat CB2 [1]) | Ki (rat CB2 [2])
COc1ccc(Cl)cc1C(=O)/N=c1\sn(C(C)(C)C)cc1COCC(F)F [Example 91, N-[(5Z)-2-tert-butyl-4-[(2,2-difluoroethoxy)methyl]isothiazol-5(2H)-ylidene]-5-chloro-2-methoxybenzamide] | 45 nM | 0.1 nM | 12 nM
CCCCc1cn(C(C)(C)C)s/c1=N\C(=O)C1(c2ccccc2)CCCCC1 [Example 94, N-[(5Z)-4-butyl-2-tert-butylisothiazol-5(2H)-ylidene]-1-phenylcyclohexanecarboxamide] | 4.8 nM | 0.25 nM | 1.1 nM
CCCCc1cn(C(C)(C)C)s/c1=N\C(=O)C1(C)CCC(C(=O)O)C1(C)C (stereo not drawn) [Example 96, 3-({[(5Z)-4-butyl-2-tert-butylisothiazol-5(2H)-ylidene]amino}carbonyl)-2,2,3-trimethylcyclopentanecarboxylic acid] | 20 nM | 1.4 nM | 27 nM
CCCCc1cn(C(C)(C)C)s/c1=N\C(=O)C1(C)CCC(C(=O)N(C)C)C1(C)C (stereo not drawn) [Example 99, N^1-[(5Z)-4-butyl-2-tert-butylisothiazol-5(2H)-ylidene]-N^3,N^3,1,2,2-pentamethylcyclopentane-1,3-dicarboxamide] | 56 nM | 4.8 nM | 42 nM
CCCCc1cn(C(C)(C)C)s/c1=N\C(=O)C1(C)CCC(C(=O)NC)C1(C)C (stereo not drawn) [Example 100, N^1-[(5Z)-4-butyl-2-tert-butylisothiazol-5(2H)-ylidene]-N^3,1,2,2-tetramethylcyclopentane-1,3-dicarboxamide] | 10 nM | 0.99 nM | 9.9 nM
CCCCc1cn(C(C)(C)C)s/c1=N\C(=O)C1CCC(C)(C(=O)O)C1(C)C (stereo not drawn) [Example 105, 3-({[(5Z)-4-butyl-2-tert-butylisothiazol-5(2H)-ylidene]amino}carbonyl)-1,2,2-trimethylcyclopentanecarboxylic acid] | 19 nM | 0.11 nM | 17 nM
CCCCc1cn(C(C)(C)C)s/c1=N\C(=NC#N)c1cc(Cl)ccc1OC [Example 110, N-[(5Z)-4-butyl-2-tert-butylisothiazol-5(2H)-ylidene]-5-chloro-N′-cyano-2-methoxybenzenecarboximidamide] | 3 nM | 0.12 nM | 1.6 nM
CCCCc1cn(C(C)(C)C)s/c1=N\S(=O)(=O)c1cccc2ccccc12 [Example 116, N-[(5Z)-4-butyl-2-tert-butylisothiazol-5(2H)-ylidene]naphthalene-1-sulfonamide] | 50 nM | 2.4 nM | 45 nM
CCCCc1cn(C(C)(C)C)s/c1=N\S(=O)(=O)C1CCCCC1 [Example 118, N-[(5Z)-4-butyl-2-tert-butylisothiazol-5(2H)-ylidene]cyclohexanesulfonamide] | 43 nM | 5.1 nM | 119 nM
CCCCc1cn(C(C)(C)C)s/c1=N\C(=O)C1C(C)(C)C1(C)C [Example 121, N-[(5Z)-4-butyl-2-tert-butylisothiazol-5(2H)-ylidene]-2,2,3,3-tetramethylcyclopropanecarboxamide] | 0.8 nM | 0.33 nM | 0.52 nM
CCCCc1cn(C(C)(C)C)s/c1=N\S(=O)(=O)c1cccc(Cl)c1Cl [Example 122, N-[(5Z)-4-butyl-2-tert-butylisothiazol-5(2H)-ylidene]-2,3-dichlorobenzenesulfonamide] | 18 nM | 1.9 nM | 11 nM
CCCCc1cn(C(C)(C)C)s/c1=N\C(=O)C12CC3CC(CC(C3)C1)C2 [Example 123, N-[(5Z)-4-butyl-2-tert-butylisothiazol-5(2H)-ylidene]adamantane-1-carboxamide] | 0.31 nM | 0.13 nM | 0.17 nM
CCCCc1cn(C(C)(C)C)s/c1=N\C(=NC#N)c1cc(C(F)(F)F)ccc1OC [Example 124, N-[(5Z)-4-butyl-2-tert-butylisothiazol-5(2H)-ylidene]-N′-cyano-2-methoxy-5-(trifluoromethyl)benzenecarboximidamide] | 3 nM | 0.027 nM | 2.3 nM
CCCCc1cn(C(C)(C)C)s/c1=N\C(=O)C1=CC(=O)CC(C)(C)O1 [Example 125, N-[(5Z)-4-butyl-2-tert-butylisothiazol-5(2H)-ylidene]-2,2-dimethyl-4-oxo-3,4-dihydro-2H-pyran-6-carboxamide] | 31 nM | 2.6 nM | 1 nM
CCCCc1cn(C(C)(C)C)s/c1=N\C(=NC#N)c1cc(C(F)(F)F)ccc1OCC [Example 126, N-[(5Z)-4-butyl-2-tert-butylisothiazol-5(2H)-ylidene]-N′-cyano-2-ethoxy-5-(trifluoromethyl)benzenecarboximidamide] | 0.6 nM | 0.076 nM | 1.2 nM
CCCCc1cn(C(C)(C)C)s/c1=N\C(=O)c1cc(C(F)(F)F)ccc1OC [Example 127, N-[(5Z)-4-butyl-2-tert-butylisothiazol-5(2H)-ylidene]-2-methoxy-5-(trifluoromethyl)benzamide] | 3.7 nM | 0.16 nM | 0.43 nM
COc1ccc(Cl)cc1C(=NC#N)/N=c1\sn(C(C)(C)C)cc1CCCC#N [Example 128, N-[(5Z)-2-tert-butyl-4-(3-cyanopropyl)isothiazol-5(2H)-ylidene]-5-chloro-N′-cyano-2-methoxybenzenecarboximidamide] | 15 nM | 0.26 nM | 5.8 nM
CC(C)(C)n1cc(CCCC#N)/c(=N/C(=O)c2cc(Cl)ccc2OCC(F)(F)F)s1 [Example 133, N-[(5Z)-2-tert-butyl-4-(3-cyanopropyl)isothiazol-5(2H)-ylidene]-5-chloro-2-(2,2,2-trifluoroethoxy)benzamide] | 15 nM | 1.4 nM | 1.1 nM
COc1ccc(C(F)(F)F)cc1C(=O)/N=c1\sn(C(C)(C)C)cc1CCCC#N [Example 134, N-[(5Z)-2-tert-butyl-4-(3-cyanopropyl)isothiazol-5(2H)-ylidene]-2-methoxy-5-(trifluoromethyl)benzamide] | 18 nM | 1.6 nM | 1.1 nM
COc1ccc(Cl)cc1C(=O)/N=c1\sn(C(C)(C)C)cc1CC1CCCC1 [Example 136, N-[(5Z)-2-tert-butyl-4-(cyclopentylmethyl)isothiazol-5(2H)-ylidene]-5-chloro-2-methoxybenzamide] | 1.9 nM | 0.051 nM | 0.51 nM
COc1ccc(Cl)cc1C(=O)/N=c1\sn(C(C)(C)C)cc1CCC(C)(C)C#N [Example 137, N-[(5Z)-2-tert-butyl-4-(3-cyano-3-methylbutyl)isothiazol-5(2H)-ylidene]-5-chloro-2-methoxybenzamide] | 7.5 nM | 2.2 nM | 2.6 nM
COc1ccc(Cl)cc1C(=O)/N=c1\sn(C(C)(C)C)cc1CCCCC#N [Example 138, N-[(5Z)-2-tert-butyl-4-(4-cyanobutyl)isothiazol-5(2H)-ylidene]-5-chloro-2-methoxybenzamide] | 5.9 nM | 12.8 nM | 0.9 nM
CCCCc1cn(C(C)(C)C)s/c1=N\C(=O)c1cc(Cl)ccc1OCCF [Example 139, N-[(5Z)-4-butyl-2-tert-butylisothiazol-5(2H)-ylidene]-5-chloro-2-(2-fluoroethoxy)benzamide] | 5.5 nM | 0.059 nM | 2 nM
CCCCc1cn(C(C)(C)C)s/c1=N\C(=O)c1cc(Cl)ccc1OCC(N)=O [Example 140, 2-(2-amino-2-oxoethoxy)-N-[(5Z)-4-butyl-2-tert-butylisothiazol-5(2H)-ylidene]-5-chlorobenzamide] | 11 nM | 0.15 nM | 3.9 nM
CC(C)(C)n1cc(CCCC#N)/c(=N/C(=O)c2cc(Cl)ccc2OCC(N)=O)s1 [Example 141, 2-(2-amino-2-oxoethoxy)-N-[(5Z)-2-tert-butyl-4-(3-cyanopropyl)isothiazol-5(2H)-ylidene]-5-chlorobenzamide] | 56 nM | 0.094 nM | 15 nM
COc1ccc(Cl)cc1C(=O)/N=c1\sn(C(C)(C)C)cc1CCCC(F)(F)F [Example 142, N-[(5Z)-2-tert-butyl-4-(4,4,4-trifluorobutyl)isothiazol-5(2H)-ylidene]-5-chloro-2-methoxybenzamide] | 2.2 nM | 0.062 nM | 0.43 nM
COc1ccc(C(F)(F)F)cc1C(=O)/N=c1\sn(C(C)(C)C)cc1CC(C)C [Example 143, N-[(5Z)-2-tert-butyl-4-isobutylisothiazol-5(2H)-ylidene]-2-methoxy-5-(trifluoromethyl)benzamide] | 11 nM | 0.1 nM | 1.8 nM
CC(C)Cc1cn(C(C)(C)C)s/c1=N\C(=O)c1cc(Cl)ccc1OCCF [Example 144, N-[(5Z)-2-tert-butyl-4-isobutylisothiazol-5(2H)-ylidene]-5-chloro-2-(2-fluoroethoxy)benzamide] | 8.8 nM | 0.1 nM | 1.2 nM
COc1ccc(C#N)cc1C(=O)/N=c1\sn(C(C)(C)C)cc1CC(C)C [Example 145, N-[(5Z)-2-tert-butyl-4-isobutylisothiazol-5(2H)-ylidene]-5-cyano-2-methoxybenzamide] | 58 nM | 0.078 nM | 6.1 nM
